# Experimental data: patent US20070074295A1 (priority 2000, published 2007)
# Legend:
# rats = assay: Effect of haloperidol and clozapine on PCP induced hypofunction: LCGU; format: in vivo, rat; conditions: for LCGU, Au layer I / LCGU, Au layers II, III&IV / LCGU, Au layers V & VI / LCGU, AuD layer I / LCGU, AuD layers II, III&IV / LCGU, AuD layers V & VI / LCGU, CA1 molecular layer / LCGU, CA1 pyramidal cell layer / LCGU, CA1 stratum oriens / LCGU, CA1 stratum radiatum / LCGU, CA3 molecular layer / LCGU, CA3 pyramidal cell layer / LCGU, CA3 stratum oriens / LCGU, CA3 stratum radiatum / LCGU, DLL / LCGU, MD / LCGU, PrL layer I / LCGU, PrL layers II & III / LCGU, PrL layers V & VI / LCGU, Rt / LCGU, VLL / LCGU, cochlear nucleus / LCGU, mO layer I / LCGU, mO layers II & III / LCGU, mO layers V & VI: day 29
# Text: The effect of antipsychotics on the positive symptoms is less well studied regarding imaging studies.
# CIRL1 mRNA = assay: Semi-quantitative RT-PCR, prefrontal cortex, chronic PCP and antipsychotic treatment; format: in vivo, rat; conditions: chronic PCP plus antipsychotic
# Procedure: FIG. 14 illustrates the level of CIRL1 mRNA present in the prefrontal cortex of rat brain following chronic PCP and antipsychotic treatment (n=12 for all groups apart from veh-veh where n=11). […] and […] (SEQ ID NOS: 25-26) were the primer sequences used to amplify this product.
# (§1) RT-PCR for specific isoforms of CIRL was then conducted in the prefrontal cortex.
# (§2) 1 ml of lysis buffer (Qiagen), including 1% β-mercaptoethanol, was added to approximately 50-100 mg of brain tissue. Tissue samples were homogenised using a ribolyser (Hybaid) with 3 bursts at 6.5 g lasting 20 seconds each. Samples were then spun at room temperature in a microfuge for 3 minutes. The supernatant was removed and re-spun for a further 3 minutes. The supernatant was decanted to a fresh tube to which an equal volume of 70% ethanol was added. The remaining RNA isolation procedure was carried out according to the manufacturer's protocol (Qiagen).
# (§3) Synthesis of cDNA was carried out according to manufacturers protocols (Life Technologies). Briefly 3-5μg of total RNA was reverse transcribed using oligo dT priming. After cDNA synthesis, samples were aliquoted and stored at −70° C. […]
# (§4) Alterations in expression levels were determined by semi-quantitative PCR. […] Samples were removed over 4 consecutive cycles, however, the first cycle to be removed sometimes varied depending on when logarithmic amplification was detected. […]
# CIRL2 variant AB mRNA = assay: as above; format: in vivo, rat; conditions: chronic PCP plus antipsychotic
# Procedure: FIG. 15 illustrates the level of CIRL2 variant AB mRNA present in the prefrontal cortex of rat brain following chronic PCP and antipsychotic treatment (n=12 for all groups apart from veh-veh where n=11). […] and […] (SEQ ID NOS: 27-28) were the primer sequences used to amplify this product.
# as §1, §2, §3, §4
# CIRL3 variant AA mRNA = assay: as above; format: in vivo, rat; conditions: chronic PCP plus antipsychotic
# Procedure: FIG. 16 illustrates the level of CIRL3 variant AA mRNA present in the prefrontal cortex of rat brain following chronic PCP and antipsychotic treatment (n=12 for all groups apart from veh-veh where n=11) […] and […] (SEQ ID NOS: 29-30) were the primer sequences used to amplify this product.
# as §1, §2, §3, §4
# TNFα mRNA = assay: RT-PCR for TNFα mRNA in rat prefrontal cortex; format: in vivo; conditions: chronic PCP in combination with haloperidol vs chronic PCP group
# Procedure: Four groups of rats were treated with (a) chronic PCP, (b) chronic vehicle (control), (c) chronic PCP plus chronic clozapine (as above) or (d) chronic PCP plus chronic haloperidol (as above). The tissue was processed for RNA extraction and RT-PCP as described above, using primers specific for TNFα mRNA.
# [1] = i.p. PCP 2.58 mgkg^−1, minipump vehicle, clozapine 20 or haloperidol 1 mgkg^−1/day
# [2] = i.p. vehicle, minipump clozapine 20 or haloperidol 1 mgkg^−1/day
# [3] = antipsychotic in conjunction with PCP 2.58 mgkg^−1
# [4] = clozapine or haloperidol via minipump
structure (smiles),measurement,setting,value
CN1CCN(C2=Nc3cc(Cl)ccc3Nc3ccccc32)CC1 [clozapine],"LCGU, Au layer I",rats; [1],140 ± 5 μmol/100 g/min
same,"LCGU, Au layers II, III&IV",rats; [1],166 ± 6 μmol/100 g/min
same,"LCGU, Au layers V & VI",rats; [1],118 ± 4 μmol/100 g/min
same,"LCGU, AuD layer I",rats; [1],135 ± 5 μmol/100 g/min
same,"LCGU, AuD layers II, III&IV",rats; [1],152 ± 6 μmol/100 g/min
same,"LCGU, AuD layers V & VI",rats; [1],107 ± 4 μmol/100 g/min
same,"LCGU, CA1 molecular layer",rats; [1],87 ± 2 μmol/100 g/min
same,"LCGU, CA1 pyramidal cell layer",rats; [1],62 ± 2 μmol/100 g/min
same,"LCGU, CA1 stratum oriens",rats; [1],57 ± 2 μmol/100 g/min
same,"LCGU, CA1 stratum radiatum",rats; [1],66 ± 3 μmol/100 g/min
same,"LCGU, CA3 molecular layer",rats; [1],84 ± 2 μmol/100 g/min
same,"LCGU, CA3 pyramidal cell layer",rats; [1],69 ± 3 μmol/100 g/min
same,"LCGU, CA3 stratum oriens",rats; [1],62 ± 1 μmol/100 g/min
same,"LCGU, CA3 stratum radiatum",rats; [1],69 ± 2 μmol/100 g/min
same,"LCGU, DLL",rats; [1],108 ± 5 μmol/100 g/min
same,"LCGU, MD",rats; [1],113 ± 3 μmol/100 g/min
same,"LCGU, PrL layer I",rats; [1],118 ± 6 μmol/100 g/min
same,"LCGU, PrL layers II & III",rats; [1],134 ± 7 μmol/100 g/min
same,"LCGU, PrL layers V & VI",rats; [1],104 ± 5 μmol/100 g/min
same,"LCGU, Rt",rats; [1],81 ± 2 μmol/100 g/min
same,"LCGU, VLL",rats; [1],118 ± 5 μmol/100 g/min
same,"LCGU, cochlear nucleus",rats; [1],119 ± 8 μmol/100 g/min
same,"LCGU, mO layer I",rats; [1],104 ± 5 μmol/100 g/min
same,"LCGU, mO layers II & III",rats; [1],112 ± 6 μmol/100 g/min
same,"LCGU, mO layers V & VI",rats; [1],115 ± 5 μmol/100 g/min
same,"LCGU, Au layer I",rats; [2],136 ± 6 μmol/100 g/min
same,"LCGU, Au layers II, III&IV",rats; [2],169 ± 6 μmol/100 g/min
same,"LCGU, Au layers V & VI",rats; [2],126 ± 4 μmol/100 g/min
same,"LCGU, AuD layer I",rats; [2],136 ± 4 μmol/100 g/min
same,"LCGU, AuD layers II, III&IV",rats; [2],154 ± 5 μmol/100 g/min
same,"LCGU, AuD layers V & VI",rats; [2],115 ± 6 μmol/100 g/min
same,"LCGU, CA1 molecular layer",rats; [2],102 ± 5 μmol/100 g/min
same,"LCGU, CA1 pyramidal cell layer",rats; [2],78 ± 4 μmol/100 g/min
same,"LCGU, CA1 stratum oriens",rats; [2],72 ± 4 μmol/100 g/min
same,"LCGU, CA1 stratum radiatum",rats; [2],80 ± 4 μmol/100 g/min
same,"LCGU, CA3 molecular layer",rats; [2],96 ± 4 μmol/100 g/min
same,"LCGU, CA3 pyramidal cell layer",rats; [2],81 ± 4 μmol/100 g/min
same,"LCGU, CA3 stratum oriens",rats; [2],74 ± 4 μmol/100 g/min
same,"LCGU, CA3 stratum radiatum",rats; [2],83 ± 5 μmol/100 g/min
same,"LCGU, DLL",rats; [2],99 ± 5 μmol/100 g/min
same,"LCGU, MD",rats; [2],124 ± 6 μmol/100 g/min
same,"LCGU, PrL layer I",rats; [2],119 ± 4 μmol/100 g/min
same,"LCGU, PrL layers II & III",rats; [2],139 ± 5 μmol/100 g/min
same,"LCGU, PrL layers V & VI",rats; [2],98 ± 4 μmol/100 g/min
same,"LCGU, Rt",rats; [2],95 ± 4 μmol/100 g/min
same,"LCGU, VLL",rats; [2],109 ± 5 μmol/100 g/min
same,"LCGU, cochlear nucleus",rats; [2],108 ± 7 μmol/100 g/min
same,"LCGU, mO layer I",rats; [2],93 ± 4 μmol/100 g/min
same,"LCGU, mO layers II & III",rats; [2],109 ± 4 μmol/100 g/min
same,"LCGU, mO layers V & VI",rats; [2],106 ± 5 μmol/100 g/min
O=C(CCCN1CCC(O)(c2ccc(Cl)cc2)CC1)c1ccc(F)cc1 [haloperidol],"effect on PCP hypofunction in medial orbital cortex, prelimbic cortex, CA1, reticular nucleus of the thalamus",rats; [3],failed to modulate the hypofunction produced by PCP
same,"effect on PCP-induced hypofunction in auditory system (AuD, lateral lemniscus, cochlear nucleus)",rats; [3],reversed the PCP-induced hypofunction
same,"LCGU in auditory system (AuD, lateral lemniscus, cochlear nucleus), drug alone",rats; [4],did not produce a significant hypofunction
same,"LCGU in medial orbital cortex, prelimbic cortex, CA1, reticular nucleus of the thalamus, drug alone",rats; [4],produced a metabolic hypofunction
same,"LCGU, Au layer I",rats; [1],141 ± 8 μmol/100 g/min
same,"LCGU, Au layers II, III&IV",rats; [1],174 ± 10 μmol/100 g/min
same,"LCGU, Au layers V & VI",rats; [1],117 ± 7 μmol/100 g/min
same,"LCGU, AuD layer I",rats; [1],133 ± 7 μmol/100 g/min
same,"LCGU, AuD layers II, III&IV",rats; [1],156 ± 10 μmol/100 g/min
same,"LCGU, AuD layers V & VI",rats; [1],106 ± 6 μmol/100 g/min
same,"LCGU, CA1 molecular layer",rats; [1],97 ± 4 μmol/100 g/min
same,"LCGU, CA1 pyramidal cell layer",rats; [1],70 ± 4 μmol/100 g/min
same,"LCGU, CA1 stratum oriens",rats; [1],64 ± 4 μmol/100 g/min
same,"LCGU, CA1 stratum radiatum",rats; [1],74 ± 4 μmol/100 g/min
same,"LCGU, CA3 molecular layer",rats; [1],94 ± 6 μmol/100 g/min
same,"LCGU, CA3 pyramidal cell layer",rats; [1],74 ± 5 μmol/100 g/min
same,"LCGU, CA3 stratum oriens",rats; [1],69 ± 5 μmol/100 g/min
same,"LCGU, CA3 stratum radiatum",rats; [1],76 ± 5 μmol/100 g/min
same,"LCGU, DLL",rats; [1],107 ± 2 μmol/100 g/min
same,"LCGU, MD",rats; [1],119 ± 6 μmol/100 g/min
same,"LCGU, PrL layer I",rats; [1],115 ± 3 μmol/100 g/min
same,"LCGU, PrL layers II & III",rats; [1],134 ± 4 μmol/100 g/min
same,"LCGU, PrL layers V & VI",rats; [1],97 ± 3 μmol/100 g/min
same,"LCGU, Rt",rats; [1],80 ± 1 μmol/100 g/min
same,"LCGU, VLL",rats; [1],110 ± 3 μmol/100 g/min
same,"LCGU, cochlear nucleus",rats; [1],115 ± 2 μmol/100 g/min
same,"LCGU, mO layer I",rats; [1],105 ± 4 μmol/100 g/min
same,"LCGU, mO layers II & III",rats; [1],116 ± 4 μmol/100 g/min
same,"LCGU, mO layers V & VI",rats; [1],119 ± 4 μmol/100 g/min
same,"LCGU, Au layer I",rats; [2],142 ± 9 μmol/100 g/min
same,"LCGU, Au layers II, III&IV",rats; [2],167 ± 9 μmol/100 g/min
same,"LCGU, Au layers V & VI",rats; [2],112 ± 9 μmol/100 g/min
same,"LCGU, AuD layer I",rats; [2],139 ± 9 μmol/100 g/min
same,"LCGU, AuD layers II, III&IV",rats; [2],153 ± 9 μmol/100 g/min
same,"LCGU, AuD layers V & VI",rats; [2],108 ± 7 μmol/100 g/min
same,"LCGU, CA1 molecular layer",rats; [2],92 ± 5 μmol/100 g/min
same,"LCGU, CA1 pyramidal cell layer",rats; [2],63 ± 4 μmol/100 g/min
same,"LCGU, CA1 stratum oriens",rats; [2],59 ± 4 μmol/100 g/min
same,"LCGU, CA1 stratum radiatum",rats; [2],66 ± 4 μmol/100 g/min
same,"LCGU, CA3 molecular layer",rats; [2],90 ± 4 μmol/100 g/min
same,"LCGU, CA3 pyramidal cell layer",rats; [2],71 ± 4 μmol/100 g/min
same,"LCGU, CA3 stratum oriens",rats; [2],64 ± 4 μmol/100 g/min
same,"LCGU, CA3 stratum radiatum",rats; [2],73 ± 1 μmol/100 g/min
same,"LCGU, DLL",rats; [2],92 ± 4 μmol/100 g/min
same,"LCGU, MD",rats; [2],117 ± 5 μmol/100 g/min
same,"LCGU, PrL layer I",rats; [2],114 ± 4 μmol/100 g/min
same,"LCGU, PrL layers II & III",rats; [2],131 ± 4 μmol/100 g/min
same,"LCGU, PrL layers V & VI",rats; [2],93 ± 4 μmol/100 g/min
same,"LCGU, Rt",rats; [2],86 ± 4 μmol/100 g/min
same,"LCGU, VLL",rats; [2],106 ± 5 μmol/100 g/min
same,"LCGU, cochlear nucleus",rats; [2],99 ± 9 μmol/100 g/min
same,"LCGU, mO layer I",rats; [2],93 ± 4 μmol/100 g/min
same,"LCGU, mO layers II & III",rats; [2],106 ± 4 μmol/100 g/min
same,"LCGU, mO layers V & VI",rats; [2],102 ± 4 μmol/100 g/min
same,effect on PCP-induced reductions in the level of CIRL1 mRNA,CIRL1 mRNA,not
same,effect on PCP-induced reductions in CIRL2,CIRL2 variant AB mRNA,reversed
same,effect on PCP-induced reductions in CIRL3,CIRL3 variant AA mRNA,reversed
same,levels of TNFα in rat prefrontal cortex,TNFα mRNA,significantly different from the chronic PCP group
